37 compounds from a melting point compilation (Tetko et al.; mined from patent text by program, amines drawn as free bases though some values may be those of a salt) can be followed below.

Turning to `CCCCCSc1cc(C(=O)O)cc(S(N)(=O)=O)c1Oc1ccccc1`, the melting point is 180 to 182 °C.
Under `COc1ncc(-c2ccncc2)cc1Br` stands 136 to 138 °C; under `CC(=O)OC1CC(=O)C2(C)CCC3C(CCC4CC(=O)CC(C)(O)C43C)C12` (configuration not stated), 170 °C.
As for `COc1cc(I)c(C(=O)Cl)cc1OC`, the figure is 151 to 154 °C; as for `Cc1cc(O)c(Oc2ccccc2C#N)cc1[N+](=O)[O-]`, 157 to 159 °C.
Under `Cn1cc(C2CCC(=O)CC2)c2cc(C#N)ccc21` stands 150 to 152 °C.
`FC(F)(F)c1cc(Cl)c2nc(N3CCN(c4ncccc4C(F)(F)F)CC3)[nH]c2c1` gave a melting point of 204 °C.
As to `COc1cc(C(=O)N2Cc3cccn3Cc3ccccc32)ccc1N`, the melting point fell in the range of 184 to 185 °C.
As for `Cn1cc2c3c(c(Cl)cc2n1)CCC3=O`, the figure is 207 to 209 °C.
Under `CC(=NOCCOc1ccc(CC2SC(=O)NC2=O)cc1)c1ccc(O)nc1` (configuration not stated) stands 240 to 242 °C; under `Cc1ccc(S(=O)(=O)OC[C@H]2COc3ccc4nc(C)ccc4c3O2)cc1`, 115 to 117 °C.
Under `CC(=O)NC1=C(C#N)C(c2cccc([N+](=O)[O-])c2)c2ccc3ccccc3c2O1` (configuration not stated) stands 234 to 236 °C; under `O=C(N[C@@H](Cc1ccc(C(F)(F)F)cc1)[C@H](O)c1ccncc1)c1ccc(F)c2ccccc12`, 239 to 243 °C; under `CCCCC[C@H](CC(=O)NCc1c(C(C)C)cccc1C(C)C)c1cccc2c1OCO2`, 133 to 134 °C.
In the case of `Cc1cc2c(c3c1NC(=O)CC3)OC(CN)C2` (configuration not stated), the melting point is above 300 °C.
As for `N#Cc1ncnc2[nH]ccc12`, the figure is 237 to 238 °C; as for `COc1cc2ncnc(NC3=CC(=O)C4(c5ccccc5)OC4C3=O)c2cc1OC` (configuration not stated), 252 to 253 °C; as for `COc1cc2c(cc1C(C)=O)sc1ccccc12`, 163 to 165 °C.
Under `Cc1cc(=O)n(Cc2ccccc2)[nH]c1=O` stands above 200 °C; under `CC(C)c1ccc(NC(=O)OC(C)(C)C)c(C(=O)O)c1`, 175 °C.
As for `C/C(=C\C(=O)O)c1cnn(C)c1-c1ccc(F)cc1`, the figure is 123 to 124 °C.
For `C[Si]1(C)CCCCCCCC[Si](C)(C)O[Si](C)(C)CCCCCCCC[Si](C)(C)O1`, the melting point was 67 to 69 °C.
Under `COc1cc(Cl)cc(CSCCNC(=O)c2c(Cl)cccc2Cl)c1` stands 83 to 84 °C; under `CCOC(=O)COc1ccc(C=O)cc1OC`, 56 to 59 °C.
Under `CC(C)(C)C(NC(=O)c1ccc(I)cc1)NS(=O)(=O)Nc1cccnc1` (configuration not stated) stands 177 to 178 °C.
As for `CC(C)(C)N1C(=O)c2cnc(CCl)cc2C1=O`, the figure is 62 to 64 °C; as for `O=C1CCC(N2C(=O)c3cccc(CNC(=O)c4cc5ccccc5cn4)c3C2=O)C(=O)N1` (configuration not stated), 198 to 200 °C; as for `Cc1cc(C2=NOC(c3cc(Cl)cc(Cl)c3)(C(F)(F)F)C2)ccc1C(=O)NCC(N)=O` (configuration not stated), 87 to 91 °C.
The compound `CCC1C(C)=NN=C(c2ccc(OC)c(OC)c2)c2cc(OC)c(OC(C)C)cc21` (configuration not stated) registered a melting point of 109 to 111 °C.
As for `N#Cc1nc(Cl)c(Cl)c(NN)c1Cl`, the melting point lay in the range of 178 to 181 °C.
Under `c1ccc(OCCSCc2ncc(-c3ccc(OCCN4CCCCCC4)cc3)o2)cc1` stands 35 to 38 °C; under `Cc1ccc(CC2CCN(C(=O)C(=O)Nc3ccc4[nH]c(=O)oc4c3)CC2)cc1`, 133 to 135 °C; under `Nc1c(Cl)nc(C2CC2)nc1Cl`, 54 °C.
As for `COc1ccc(NN=C(Sc2ccc(C)c(C)c2)C(C)=O)cc1`, the figure is 138 to 141 °C; as for `CCCCC[C@@H](CNC(=O)Nc1c(OC)ccc2c1CCCC2)c1cccc2c1OCO2`, 137 to 138 °C; as for `O=C(c1ccc(CCCCc2ccccc2)cc1)N(O)Cc1ccccc1`, 83.5 to 85 °C.
Under `CCCNc1nc(C)c(CCCl)c(=O)n1C` stands 150 °C.
